Earlier results in publication PMC7435928, “Preclinical Evaluation of NHS-Activated Gold Nanoparticles Functionalized with Bombesin or Neurotensin-Like Peptides for Targeting Colon and Prostate Tumours” (Molecules, 2020).

Target: bombesin BBRS1, BBRS2 and BBRS3 receptors
Set-up: method as in printed for the value
Settings: target receptors BBRS1, BBRS2; not measured in this paper, ref not given; cited from earlier work

COc1ccc(C2(CNC(=O)[C@](C)(Cc3c[nH]c4ccccc34)NC(=O)Nc3ccc([N+](=O)[O-])cc3)CCCCC2)nc1 [PD 176252]
Kd: 1 nM
